In PubChem BioAssay (NCI):
Several values for one entry are separate records, joined by “and”; a condition that tells them apart may be missing. Equal values may be shown once.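 All cell lines were grown in 96-well plates and treated with compound for 48 hours. The concentration for 50% growth inhibition is given as GI50. TGI is the concentration that stops growth completely.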

What was measured:
Assay in all cases: inhibition of tumour cell growth, NCI panel, 48 h
A498 renal = system: A498 renal
HL-60(TB) leukemia = system: HL-60(TB) leukemia
HOP-92 NSCLC = system: HOP-92 NSCLC
M14 melanoma = system: M14 melanoma
MALME-3M melanoma = system: MALME-3M melanoma
NCI-H23 lung = system: NCI-H23 lung
SNB-75 CNS = system: SNB-75 CNS
SW-620 colon = system: SW-620 colon
UACC-257 melanoma = system: UACC-257 melanoma
UO-31 renal = system: UO-31 renal

SMILES	TGI (A498 renal) [µM]	TGI (HL-60(TB) leukemia)	TGI (HOP-92 NSCLC)	TGI (M14 melanoma)	TGI (MALME-3M melanoma)	TGI (NCI-H23 lung)	TGI (SNB-75 CNS)	TGI (SW-620 colon)	TGI (UACC-257 melanoma)	TGI (UO-31 renal)	GI50 (A498 renal) [µM]	GI50 (HL-60(TB) leukemia) [µM]	GI50 (HOP-92 NSCLC) [µM]	GI50 (M14 melanoma) [µM]	GI50 (MALME-3M melanoma) [µM]	GI50 (NCI-H23 lung) [µM]	GI50 (SNB-75 CNS) [µM]	GI50 (SW-620 colon) [µM]	GI50 (UACC-257 melanoma) [µM]	GI50 (UO-31 renal) [µM]
CSc1nc2c(nc(N)n2C2OC(COC(C)=O)C(OC(C)=O)C(OC(C)=O)C2OC(C)=O)c(=O)n1C (stereo not given)	> 100	> 100 µM	> 100 µM	> 100 µM	> 100 µM	> 100 µM	> 100 µM	> 100 µM	> 100 µM	> 100 µM										
COc1ccc(CNC(C)C(=O)O)cc1 (stereo not given)	> 100	> 100 µM	> 100 µM	> 100 µM	> 100 µM	> 100 µM	> 100 µM	> 100 µM	> 100 µM	> 100 µM										
C[N+](C)(CCCCCC[N+](C)(C)CCCN1C(=O)c2cc3ccccc3cc2C1=O)CCCN1C(=O)c2cc3ccccc3cc2C1=O	> 37.5	> 37.5 µM	> 37.5 µM	> 37.5 µM	> 37.5 µM	> 37.5 µM	> 37.5 µM	> 37.5 µM	> 37.5 µM	> 37.5 µM	> 37.5	> 37.5	> 37.5	> 37.5	> 37.5	> 37.5	> 37.5	> 37.5	> 37.5	> 37.5
O=S1(=O)NC2CCC3NS(=O)(=O)NC4CCC(N1)N4S(=O)(=O)N23 (stereo not given)	> 100	> 100 µM	> 100 µM	> 100 µM	> 100 µM	> 100 µM	> 100 µM	> 100 µM	> 100 µM	> 100 µM										
CO[C@]12C=C/C(=C(/C(=O)OCc3cccnc3)C(=O)CCCCCCCC[C@@]3(OC)C=C/C(=C(/C(=O)OCc4cccnc4)C(=O)CCCCCCCC1)O3)O2	6.57	4.25 µM	4.83 µM	3.79 µM	3.7 µM	1.87 µM	4.05 µM	6.75 µM	20.1 µM	4.34 µM	2.04	1.37	1.86	1.2	1.11	0.79	1.18	1.62	2.01	1.21
COC(=O)NC(=Nc1ccc(Oc2ccccc2)cc1NC=O)NC(=O)OC	1.08	0.707 µM	> 100 µM	> 100 µM	> 100 µM	> 100 µM	> 100 µM	> 100 µM	> 100 µM	69.6 µM										
C=C(C)C1CC=C(C)CC1 (stereo not given)	1610	> 100 µM and 1720 µM	> 100 µM and 1530 µM	> 100 µM and 1700 µM	> 100 µM and 1690 µM	> 100 µM and 1690 µM	> 100 µM and 1710 µM	> 100 µM and 1590 µM	> 100 µM and 1850 µM	> 100 µM and 1620 µM		> 100	> 100	> 100	> 100	> 100	> 100	> 100	> 100	> 100
O=C(N=Nc1c(O)[nH]c2ccccc12)c1oc2ccccc2c1CN1CCN(c2ccccc2)CC1	8.87	> 50 µM	5.78 µM	8.83 µM	1.7 µM	8.73 µM	4.48 µM	7.47 µM	28.3 µM	2.94 µM	1.56	36.5	1.25	2.07	0.724	2.01	1.04	1.5	4.03	1.01
COc1cc2oc(-c3ccc(O)cc3O)c(CC=C(C)C)c(=O)c2c(O)c1/C=C/C(C)C	5.12	5.59 µM	7.3 µM	3.56 µM	14.2 µM	8.87 µM	9.04 µM	6.03 µM	17.5 µM	8.08 µM										
Cn1c(=O)c2ccc(-c3ccc(Br)cc3)nc2n(C)c1=O	> 100	> 100 µM	> 100 µM	> 100 µM	> 100 µM	> 100 µM	73.5 µM	> 100 µM	> 100 µM	> 100 µM										
C=C1CCC2C3(C)COC(c4c(OC)cccc4OC)OC3CCC2(C)C1C/C=C1/C(=O)OCC1O (stereo not given)	29.6	4.9 µM	8.51 µM	9.01 µM	27.7 µM	15 µM	14.5 µM	3.23 µM	31 µM	4.33 µM	15	1.54	2.92	2.96	8.92	3.98	2.55	1.71	13.5	2.01
O=C(CC1(O)C(=O)Nc2ccccc21)c1ccc(F)cc1 (stereo not given)	> 100	> 100 µM	> 100 µM	> 100 µM	> 100 µM	> 100 µM	> 100 µM	> 100 µM	> 100 µM	> 100 µM										
CC(C)=CCC1=C(OCC(=O)O)C(=O)c2ccccc2C1=O	> 100	36.1 µM	> 100 µM	> 100 µM	35 µM	> 100 µM	64.7 µM	76.6 µM	76 µM	> 100 µM										
N#Cc1cc([N+](=O)[O-])ccc1NC(=O)C(F)(F)F	> 100	> 100 µM	> 100 µM	> 100 µM	> 100 µM	> 100 µM	> 95.9 µM	> 55.8 µM	> 100 µM	> 100 µM										
Cc1ccc(/C=C/C(=N/N=C(N)N)c2ccccc2)cc1	4.92	4.75 µM	8.42 µM	3.95 µM	20.2 µM	11.8 µM	7.41 µM	13.8 µM	12.9 µM	17.2 µM	1.04	2.28	2.25	1.67	3.8	2.76	2.04	2.47	2.96	3.75
O=[N+]([O-])c1ccc(Sc2nc(Cl)nc(NC3CCCC3)n2)cc1	> 10	> 10 µM	> 10 µM	> 10 µM	> 10 µM	> 10 µM	> 10 µM	> 10 µM		> 10 µM	> 10	> 10	> 10	> 10	> 10	> 10	> 10	4.78		3.08
Clc1cc2c(nn1)Nc1ccccc1S2	> 100	> 100 µM	> 100 µM	> 100 µM	> 100 µM	> 100 µM	> 100 µM	> 100 µM	> 100 µM	> 100 µM	> 100	> 100	> 100	> 100	> 100	> 100	> 100	> 100	> 100	> 100
Clc1nc(Cl)c2c3c(sc2n1)CCCC3	> 100	> 100 µM	> 100 µM	> 100 µM	> 100 µM	> 100 µM	> 100 µM	> 100 µM	> 100 µM	> 100 µM	> 100	> 27.4	3.88	4.49	> 100	5.92	> 100	5.37	> 26.1	
COC1=C(Br)C(O)C2(C=C1Br)CC(C(=O)NCCCCNC(=O)C1=NOC3(C=C(Br)C(OC)=C(Br)C3O)C1)=NO2 (stereo not given)	> 100	47.4 µM	94.9 µM	37 µM	45.5 µM	> 100 µM	61.2 µM	> 100 µM	52.8 µM	> 100 µM										
NS(=O)(=O)c1ccc(NCc2cnc3ccccc3n2)cc1	> 100	> 100 µM	> 100 µM	> 100 µM	> 100 µM	> 100 µM	> 100 µM	> 100 µM	> 100 µM	> 100 µM										
CCCCCCCCCCCCCCCC(=O)N[C@H](/C=C/[C@H](O)CCCCCCCCCCCCC)CO	> 100	> 100 µM	> 100 µM	> 100 µM	> 100 µM	> 100 µM	> 100 µM	> 100 µM	> 100 µM	> 100 µM	> 100	> 100	> 100	> 100	> 100	> 100	> 100	> 100	> 100	> 100
C[C@]12CC[C@H]3[C@@H](CCC4=CC(=O)CC[C@@]43C)[C@@H]1CC[C@@H]2C(=O)COS(=O)(=O)c1ccc(Br)cc1	37.2	21.9 µM	18.3 µM	23.8 µM	12.7 µM	8.62 µM	41.8 µM	> 44.5 µM	31.9 µM	3.5 µM										
Nc1ccccc1NC(=O)c1ccc(CN2CCC/C(=C\c3ccccn3)C2=O)cc1	3.47	6.48 µM	2.98 µM	> 100 µM	> 100 µM	> 100 µM	6.05 µM	> 100 µM	14.8 µM	15.9 µM	1.09	0.467	0.143	1.05	1.01	2.11	1.06	0.745	1.15	1.24
CNc1cc2nc3cc(NC)c(C)cc3cc2cc1C	3.9	15.9 µM	19.1 µM	14.1 µM	19.8 µM	3.11 µM	19.4 µM		32.3 µM	13.3 µM	1.18	2.58	1.76	2.24	2.7	0.624	3.75		6.83	0.365
CC1=C(C(=O)Nc2ccc3[nH]ncc3c2)C(c2ccc(Cl)c(Cl)c2)CC(=O)N1 (stereo not given)	> 25	> 25 µM	> 7.6 µM	> 25 µM	> 25 µM	> 25 µM	> 19.1 µM	> 25 µM	> 25 µM	> 25 µM	4.14	> 25	0.277	> 25	10.6	> 25	2.25	> 20.7	> 25	3.22
Nc1nc2c(nnn2C2OC(CO)C(O)C2O)c(=O)[nH]1 (stereo not given)	> 30.2	> 100 µM	68.4 µM	> 100 µM	> 100 µM	> 100 µM	> 100 µM	> 100 µM	> 100 µM	> 100 µM	1.86	0.546	0.505	2.07	4.62	1.54	5.86	1.18	7.29	1.71
CC1(C)CCCC(C)(C2CCC3(C)C2C(O)CC2C4(C)CCC(O)C(C)(C)C4C(O)CC23C)O1 (stereo not given)	28.1	5.44 µM	30.6 µM	31.7 µM	50.1 µM	25.6 µM	24.6 µM	41.6 µM	28.1 µM	24.1 µM										
Cc1[nH]c(C(=O)Nc2ccccc2OC2CCNCC2)c(Cl)c1Cl	9.47	2.26 µM	1.79 µM	1.9 µM	1.55 µM	5.64 µM	1.19 µM	2.39 µM	2.12 µM	1.32 µM	2.71	1.05	0.702	0.95	0.809	1.52	0.56	0.99	1.04	0.656
CCCCCCCCCCC/C=C\C[C@H](O)C/C=C1/C(=O)C=C[C@@H]1C/C=C\CCCC(=O)OC	13.6	2.68 µM	11.9 µM	4.32 µM	2.41 µM	1.58 µM	6.79 µM	4.05 µM		4.67 µM	7.68	0.835	5.43	1.04	0.803	0.687	2.07	1.09		1.1
O=C(O)C1C2C=CC(C2)C1C(=O)O (stereo not given)	> 100	> 100 µM	> 100 µM	> 100 µM	> 100 µM		> 100 µM	> 100 µM	> 100 µM	> 100 µM	> 100	> 100	> 100	> 100	> 100		> 100	> 100	> 100	> 100
